Assay results: a melting point compilation (Tetko et al.; mined from patent text by program, amines drawn as free bases though some values may be those of a salt)

Row | SMILES | melting point [°C]
1 | CCC1c2cc(F)ccc2-c2ccccc2N1C(=O)c1ccc(O)cc1F (configuration not stated) | 109 to 111
2 | C=CCN(C(C)c1ccccc1)S(=O)(=O)c1ccc(O)cc1 (configuration not stated) | 128 to 129
3 | CC(=O)N=c1sc(C)cn1CC(=O)c1cccs1 | 187 to 188
4 | COc1ccc(-n2c(=O)n(OCc3ccccc3)c(=O)c3cc(F)c(N4CCCC4)nc32)cc1 | 186 to 188
5 | CCCCN(c1nc(N(CC)CC)nc(N(CCCC)C2CC(C)(C)N(OC)C(C)(C)C2)n1)C1CC(C)(C)N(OC)C(C)(C)C1 | 109 to 112
6 | Cc1nc2c([nH]1)C(=O)c1ccccc1C2=O | > 260
7 | CN(C)C[C@H]1CC[C@H](CCNc2ncc(Br)cn2)CC1 | 108 to 110
8 | CC1Cc2cc(O)ccc2C2C(F)CC3(C)CC(O)CC3C12 (configuration not stated) | 239 to 240
9 | COc1c(C)c(OC(=O)c2c(C)c(C)c(OCCCOc3ccc(C(N)=O)cc3)c(C)c2OC)c(C)c(C)c1C(N)=O | 284 to 286
10 | Cc1nc(N(C)C)n2ncc(-c3ccncc3)c2n1 | 195 to 197
11 | N#Cc1cc(C2=Nc3ccc(C4CC4)cc3NC(=O)C2)ccn1 | 227 to 230
12 | C[C@@H](c1ccc(-c2[nH]nnc2Cl)cc1)[C@](O)(Cn1cncn1)c1ccc(F)cc1F | 113 to 115
13 | COc1ccc(C(NCCc2ccccc2)c2cccc(Nc3c(N)c(=O)c3=O)c2)cc1 (configuration not stated) | 174 to 176
14 | CC(C)C(=O)Oc1ccc2nc(NC(=O)Nc3ccccc3)sc2c1 | 212 to 215
15 | c1ccc(CN2CCN(Cc3ccccc3)[C@@H](CCc3ccccn3)C2)cc1 | 83 to 86
16 | CNC(=O)c1ccccc1Nc1nc(Nc2ccc3c(n2)CCCCS3)ncc1Cl | 169 to 174
17 | COC(=O)c1cc2ccc(OC)cc2cc1/N=C/N(C)C | 122 to 124
18 | C[C@H](CO)Nc1nc(SCc2ccno2)nc2[nH]c(=O)cnc12 | 191 to 194
19 | O=C(O)c1ccc(/C=C/c2ccccc2-c2cccs2)cc1 | 208 to 210
20 | COC(=O)Cc1csc2cc(-c3ccccc3)cn12 | 88 to 89
21 | O=C(NCc1ccc(Cl)cc1)c1cn2c(CCO)cc3cc(CN4CCOCC4)cc(c1=O)c32 | 169 to 172
22 | Cc1cc(C(=O)c2cccc(Br)c2)c(O)cc1Cl | 115 to 117
23 | CCOC(=O)C1=C(c2ccc(-c3ocnc3C)cc2)NC(C)=C(C(=O)Nc2ccccn2)C1c1ccccc1Cl (configuration not stated) | 176 to 179
24 | COC[C@H](Cc1ccccc1)Nc1nc(C)nc2c1nnn2-c1ccc(C(C)C)cc1Br | 67 to 69
25 | CC(C)NC1=NS(=O)(=O)c2ccc(C3CCCCC3)cc2N1 | 131 to 133

Row | SMILES | melting point [°C]
26 | O=S(=O)(N[C@H]1CC[C@H](CCN2CCN(c3nccc4c3CCO4)CC2)CC1)c1ccccc1 | 168
27 | Cc1cccc(C(O)CNC(=C[N+](=O)[O-])NCCSCc2cc(C)c(CN(C)C)s2)c1 (configuration not stated) | 88 to 89
28 | CCCCCCCCCCCCCCCCCCOCCC(=O)COCc1ccccc1 | 33 to 34
29 | COc1ccc(CNc2nn(CC(=O)OC(C)(C)C)c(=O)c3ccc(C#N)cc23)cc1Cl | 174 to 175
30 | O=C(O)c1cn(-c2ccc(F)c([N+](=O)[O-])c2)c2nc(Cl)c(F)cc2c1=O | > 270
31 | O=C(c1ccc([N+](=O)[O-])cc1)N1Cc2cccn2-c2ccccc21 | 174 to 178
32 | Cc1ccccc1N=C(C#N)c1c(Cl)cccc1Cl | 55
33 | CC(=O)Oc1ccc(-c2cnc(-c3ccccc3)nc2Cl)cc1OC(C)=O | 152 to 153
34 | CCCCC(c1cc(F)ccc1F)S(=O)c1ccc(Cl)cc1 (configuration not stated) | 108 to 109
35 | COC(=O)c1nc(Cl)n2c1CN=C(c1ccccc1Cl)c1cc(Cl)ccc1-2 | 200 to 202
36 | CN(C)CCCSc1ccc2ccc(N)nc2n1 | 164
37 | N#CN=C(Nc1cccnc1)NC(CC12CC3CC(CC(C3)C1)C2)NC(=O)c1ccc(Cl)cc1 (configuration not stated) | 202 to 203
38 | CC(C)C(NS(=O)(=O)c1ccc(-c2ccccc2)cc1)C(=O)O (configuration not stated) | 164 to 166
39 | CN1C(c2ccc(F)cc2)=NC(C(F)(F)F)(C(F)(F)F)C1NC(=O)c1ccc(N2CCCCC2)cc1 (configuration not stated) | 128 to 129
40 | Cc1cc(-c2cc(C(F)F)n3ncc(C(=O)Nc4cccc(S(=O)(=O)N5CCN(C)CC5)c4)c3n2)ccc1C(F)(F)F | 198
41 | Cc1cc(=O)c(C(=O)NS(C)(=O)=O)nn1-c1ccc(Cl)cc1 | 225 to 227
42 | CCOc1cc2c(cc1OC)C(c1ccc(C(=O)N(C(C)C)C(C)C)cc1)=N[C@@H]1CCSC[C@H]21 | 84 to 89
43 | COc1cc(N)c(Cl)cc1C(=O)OCC1CCN(CCCOc2ccc(F)cc2)CC1 | 140
44 | C/C(=N\OC(=O)[C@@H](NC(=O)OC(C)(C)C)C(C)C)[C@H]1CC[C@H]2[C@@H]3CCC4=CC(=O)CC[C@]4(C)[C@H]3CC[C@]12C | 82 to 84
45 | CCCC(C)(Br)C(=O)Nc1ccc(C(C)C)cc1 (configuration not stated) | 87.2 to 88.2
46 | O=C(O)c1ccc(S(=O)(=O)CCO)c([N+](=O)[O-])c1 | 190 to 192
47 | O=C(NCC12CC3CC(CC(C3)C1)C2)c1cc(NCCNCC(O)c2ccccc2)ccc1Cl (configuration not stated) | 63 to 64
48 | CCOc1ccc(C(=O)N(CC)CC)c(OCC)c1 | 45 to 56
49 | O=C1c2cccc(NC(=S)Nc3cccc4c3C3CC5(CCN3C4=O)SCCS5)c2C2CC3(CCN12)SCCS3 (configuration not stated) | 188
50 | CCCN1N=C2C(=Cc3ccccc3)CSCC2C1c1ccccc1 (configuration not stated) | 111 to 120

Row | SMILES | melting point [°C]
51 | c1cncc(-c2ccsc2)c1 | 75 to 77
52 | CC(C)=C1C(=O)N(c2ccc(N)cc2)C(=O)/C1=C(\C)c1cc(-c2ccccc2)sc1C | 193 to 195
53 | COC(=O)Cc1oc2ccc(Cl)cc2c1-c1ccccc1C | 135 to 136
54 | O=C(O)C1=C(c2ccccc2)c2cc(Br)ccc2CO1 | 205 to 206
55 | C=CCONC(=O)Cc1ccc(OC)cc1 | 100 to 101
56 | O=C(CCC(Cl)(Cl)Cl)Nc1cccc(-c2ccnc3c(C(=O)c4cccs4)cnn23)c1 | 189 to 191
57 | N[C@H](C1CCCCC1)C(O)(c1ccccc1)c1ccccc1 | 181 to 182
58 | COc1ccc(CN2CCc3nc(-c4ccccc4)c4c(c3C2)CO[C@@H](C)C4)cc1 | 110
59 | O=C(N[C@@H](Cc1ccc2ccccc2c1)[C@H](O)CCl)OCc1ccccc1 | 173 to 174
60 | Cc1ccc(-n2nc(C(F)(F)F)cc2-c2ccc(S(C)(=O)=O)cc2)cc1F | 158 to 160
61 | O=c1ccc2c([nH]1)CCN(Cc1ccccc1)C2 | 210 to 212
62 | O=C(Nc1cc[nH]c(=O)n1)OCc1ccccc1 | > 250
63 | COC(=O)c1ccccc1C(=O)Nc1cc(C(F)(F)F)on1 | 116 to 117
64 | CC1CCc2ccc(OCC(O)CCl)cc2O1 (configuration not stated) | 70 to 72
65 | COC(C(C)C)C(C)(C)C(=O)Nc1ccc(Cl)cc1 (configuration not stated) | 103 to 107
66 | CCC(c1ccc(NC(=O)Cc2ccccc2C)c([N+](=O)[O-])c1)n1ccnc1 (configuration not stated) | 122
67 | COc1ccc(C2=NN(CCCCN)C(=O)[C@H]3CC=CC[C@@H]23)cc1OC (relative stereo) | 108 to 109
68 | CN(C(=O)c1ccc2c(c1)nc(NC(=O)c1cccs1)n2CCCC(N)=O)C1CCCCC1 | 112 to 115
69 | CC(=O)NC[C@H]1CN(c2ccc(C3=CCCCO3)c(F)c2)C(=O)O1 | 161 to 163
70 | CC1(C)Oc2ccc(C#N)cc2C(Sc2ccccn2)C1O (configuration not stated) | 101 to 103
71 | N#Cc1ccccc1-c1cc(-c2cnc3nc(C(F)(F)F)cnn23)ccc1F | 168 to 174
72 | O=C1NCCC[C@@H]1NS(=O)(=O)c1ccccc1C(F)(F)F | 161 to 163
73 | O=C(O)CCCC(=O)N[C@@H](Cc1ccccc1)C(=O)NCCCCNc1ncccn1 | 186
74 | CCOCc1cc2cc(Cl)ccc2oc1=Nc1cccc(OC)c1 | 96.5 to 97.5
75 | CNC(=O)C(=NOC)c1ccccc1COc1ccc(Sc2ccccc2)cn1 | 95 to 96

Row | SMILES | melting point [°C]
76 | CC(C)(C)NS(=O)(=O)c1cccc(NC(=O)c2cnn3c(C4CC4)cc(-c4ccc(Cl)cc4)nc23)c1 | 238 to 239
77 | COc1ccc2c(c1)c(Cc1cc(=O)n(-c3ccc(C)nn3)[nH]1)c(C)n2C(=O)c1ccc(Cl)cc1 | 122 to 124
78 | CCOC(=O)N1CCN(CCS(=O)c2ccccc2)CC1 (configuration not stated) | 76
79 | Cc1ccc(Cl)c(N2C(=O)C(=NO)c3ccccc32)c1Cl | 190 to 191
80 | Cn1c(=O)cc(N)n(-c2ccc(Cl)cc2Cl)c1=O | 249 to 251
81 | OC[C@@H](O)COc1ccc(OCc2ccccc2)cc1 | 125 to 126
82 | CC(C)(C)SN1C(=O)NC(=O)C1=O | 150 to 152
83 | O=C(NCCCSc1ccncc1)c1cccnc1 | 90 to 91
84 | Cc1cc(-c2c(-c3ccc(S(C)(=O)=O)cc3)cnn(-c3ccc(F)cc3)c2=O)ccc1F | 168 to 170
85 | F[C@H]1C[C@H](COc2ccccc2Cl)N(c2ncnc3[nH]cnc23)C1 | 143 to 144
86 | CC(C)(C)OC(=O)c1ccc(C(=O)NS(=O)(=O)c2ccc(Cl)cc2)cc1 | > 300
87 | CCOc1cc2c(c3c1OC(C)(C)C3)C(c1cccc(NC(N)=O)c1)=NC(C)(C)C2 | 202 to 205
88 | Nc1cc(=O)n(Cc2ccc([N+](=O)[O-])cc2)[nH]1 | 182
89 | COC(=O)c1ccc2c(c1)C(=O)C(=Cc1ccc(OC)c(OC)c1OC)O2 | 181 to 183
90 | COc1ccc(C2=NN(C3CCN(C(=O)CCCOc4ccc5[nH]c(=O)ccc5c4)CC3)C(=O)[C@@H]3CC=CC[C@H]23)cc1OC | 146 to 149
91 | COc1ccc(-c2nccc(N3CCN(c4c(C)c(C)c5c(c4C)CC(C)(C)O5)CC3)n2)cc1 | 240 to 242
92 | COC(=O)Cc1cc2cc(O)ccc2s1 | 136 to 137
93 | Nc1ccc(C(=O)N2Cc3cccn3-c3ccccc32)cc1 | 225 to 228
94 | CCC1(CO)CS(=O)(=O)c2ccccc2C(c2ccccc2)=N1 (configuration not stated) | 170 to 171
95 | CCCCC(CC)COc1cc2c3c(cccc3c1Br)C(=O)c1ccccc1-2 (configuration not stated) | 85 to 88
96 | O=C(c1ccc(I)cc1)C1(c2ccccc2F)CO1 (configuration not stated) | 75 to 76
97 | O=C1Cc2cc(C(=O)N3CCN(Cc4ccccc4)CC3)ccc2N1 | 151 to 153
